Data as given in US3968214A, “5-Methylthio-pyrimidine vasodilators” (Produits Chimiques Ugine Kuhlmann, priority 1973, dated 1976).

Tests used:
[1] = Acute toxicity in mice, intravenous and oral (LD50); type: in vivo; conditions: mouse, in vivo, oral, read-out: Acute toxicity to mice LD 50, orally
Text: (§1) The acute toxicities of the compounds according to the invention have been determined CD 1 mice (Charles RIVER) by intravenous and oral methods. The LD50 calculated by the quantal cumulative method of J. J. Reed and H. Muench (Amer. J. Hyg. 1938, 27, 493) are collected in the following Table: […]

[2] = test system: abdominal spasms caused in mice by 2-phenyl-1,4-benzoquinone; assay: Analgesic activity: abdominal spasms caused by intraperitoneal 2-phenyl-1,4-benzoquinone (P.B.Q.); type: in vivo; conditions: Mus musculus; mice, oral; read-out: Analgesic activity P.B.Q. AD 50
Text: (§2) The analgesic activities have been investigated with respect to abdominal spasms caused in mice by the intraperitoneal injection of 2-phenyl-1,4-benzoquinone according to E. Siegmund, E. Cadmus and G. Lu, Proc. Soc. exp. Biol. Med., 1957, 95, 729-731. The central antiserotonin properties have been determined by the "Head-twitch" technique in mice according to S. J. Corne, R. W. Pickering and B. T. Warner, Brit. J. Pharmacol., 1963, 20, 106-120. In this test, the antiserotonin products inhibit the sudden shaking of the head induced in mice by 5-hydroxy-tryptophan, the biological precursor of serotonin.

[3] = test system: serotonin (shaking of the head induced by 5-hydroxy-tryptophan); assay: Central antiserotonin activity: Head-twitch induced by 5-hydroxy-tryptophan; type: in vivo, mice; conditions: for ED50: Mus musculus, mice, oral, read-out: Antiserotonin activity Head-twitch AD 50
Text: as §2, with “Biol. Med., 1957, 95, 729-731.” left out, “J. Pharmacol., 1963, 20, 106-120.” left out

[4] = test system: isolated duodenum of rabbit, contractions caused by acetylcholine; assay: Spasmolytic activity, neurotrope versus acetylcholine, isolated duodenum (Magnus)
Text: (§3) The spasmolytic activities are known by means of the technique of R. Magnus (Arch. Ges. Physiol., 1904, 102, 123) on the isolated duodenum of rabbits. The spasmolytic neurotropes inhibit the contractions of the organ caused by acetylcholine, while the musculotropes prevent the spasms induced by barium chloride. The EC 50 expressed in mg/litre are collected in the following Table where EC denotes "Effective concentration".

[5] = test system: isolated duodenum of rabbit, spasms induced by barium chloride; assay: Spasmolytic activity, musculotrope versus BaCl2, isolated duodenum (Magnus)
Text: as §3

glycemia = assay: Hypoglycemiant activity, variation of glycemia after 4 days of daily oral treatment; type: in vivo, male CD rats (Charles RIVER); conditions: rat
Protocol: The hypoglycemiant properties have been studied on the male CD rats (Charles RIVER) weighing 200 to 250 g, in which the glycemia is controlled before treatment and then after 4 days of daily oral treatment. The seric glucose is determined by the method of W. S. Hoffmann (J. Biol. Chem., 1937, 120, 51). Groups of 10 rats are used and the hypoglycemiant activity is expressed by the percentage variation of the average glycemia of the treated animals with respect to that of the controls. If it is necessary, the statistical significance of the difference is determined by the test of the coefficient "t" of Student.

mice = assay: Acute toxicity in mice, intravenous and oral (LD50); type: in vivo
Text: as §1

| SMILES | LD50 [1] [mg/kg] | ED50 [2] [mg/kg] | ED50 [3] [mg/kg] | Spasmolytic activity EC 50, neurotrope versus acetylcholine [4] [µg/mL] | Spasmolytic activity EC 50, musculotrope versus BaCl2 [5] [µg/mL] | hypoglycemiant properties (in words) (glycemia) | central antiserotonin activity (in words) ([3]; given orally to mice) | Acute toxicity to mice LD 50, intravenous (mice; intravenous) [mg/kg] | Acute toxicity to mice LD 50, orally (mice; oral) [mg/kg] |
| --- | --- | --- | --- | --- | --- | --- | --- | --- | --- |
| CCCN(CCC)c1nc(Cl)c(SC)c(NCCN(CC)CC)n1 [Example 5, 2-dipropylamino-4-(2'-diethylamino)-ethylamino-5-methylthio-6-chloro-pyrimidine] | 800 | > 300 | 100 | 1.00 | 0.90 | strong hypoglycemiant properties | – | – | – |
| CCN(CC)CCNc1nc(N(C)c2ccc(Cl)cc2)nc(Cl)c1SC [Example 6, 2-N-methyl-2-N-(4-chloro-phenyl)amino-4-(2'-diethylamino)-ethylamino-5-methylthio-6-chloro-pyrimidine] | 610 | – | 65 | – | – | strong hypoglycemiant properties | central antiserotonine | – | – |
| CSc1c(Cl)nc(N2CCCCC2)nc1NCCN(C(C)C)C(C)C [Example 13, 2-piperidino-4-(2'-diisopropylamino)-ethylamino-5-methylthio-6-chloro-pyrimidine] | > 900 | – | 185 | – | – | strong hypoglycemiant properties | – | – | – |
| CSc1c(Cl)nc(N(C)c2cccc(C(F)(F)F)c2)nc1NCCN(C(C)C)C(C)C [Example 17, 2-N-methyl-N(3-trifluoromethyl-phenyl)-amino-4-(2'-diisopropylamino)-ethylamino-5-methylthio-6-chloro-pyrimidine] | > 900 | – | 400 | – | 0.50 | strong hypoglycemiant properties | – | – | – |
| CSc1c(Cl)nc(N(C)c2ccc(Cl)cc2)nc1NCCN(C(C)C)C(C)C [Example 18, 2-N-methyl-N(4-chloro-phenyl)amino-4-(2'-diisopropyl-amino)-ethylamino-5-methylthio-6-chloro-pyrimidine] | > 900 | > 300 | 205 | – | – | strong hypoglycemiant properties | – | – | – |
| CSc1c(NCCN(C(C)C)C(C)C)nc(N(C)c2ccccc2)nc1OCCCN(C)C [Example 30, 2-N-methyl-N-phenyl-amino-4-(2'-di-isopropyl-amino)-ethylamino-5-methyl-thio-6-(dimethylaminoethyl)-methoxy-pyrimidine] | – | – | – | – | 1.00 | strong hypoglycemiant properties | – | 9.5 | 200 |
